Source: patent US8410302B2, “Methoxyimino compounds and fungicide composition comprising same” (Kyung Nong Corporation, priority 2007, dated 2013)
Like-named read-outs stand apart in the source and are kept apart here.

Experiments:
Puccinia recondita = assay: Fungicidal activity against wheat leaf rust (WLR) disease, control value; format: in vivo; details: for pest or weed control at 2 ppm / pest or weed control at 10 ppm / pest or weed control at 50 ppm / pest or weed control at 100 ppm: read-out: WLR control value (C.V.)
[1] = tested on: Pyricularia oryzae Carvara KA301; assay: whole plant or invertebrate; format: in vivo; details: for pest or weed control at 2 ppm / pest or weed control at 10 ppm / pest or weed control at 50 ppm / pest or weed control at 100 ppm: Pyricularia oryzae, read-out: RCB control value (C.V.); for RCB control value (C.V.): rice blast
Botrytis cinerae = assay: Fungicidal activity against cucumber gray mold rot (CGM) disease, control value; format: in vivo; details: for pest or weed control at 100 ppm / CGM control value (C.V.): 100 ppm
Protocol: Botrytis cinerae, which was isolated from cucumber infected thereby, was inoculated on a potato agar medium (PEC) and cultured under a 12L/12D cycle at 25° C. for 15 days to form spore. The spores were scraped, filtered through a gauze and then suspended in Potato Dextrose broth at a concentration of 1×10^6 spore/ml. The spore suspension was sprayed on a cucumber plant having one leaf. The cucumber plant was held in a humidified room at 20° C. for 3 days. L.A. on a leaf was measured to calculate a C.V.

Erysiphae graminis = assay: Fungicidal activity against barley powdery mildew (BPM) disease, control value; format: in vivo; details: for pest or weed control at 2 ppm / pest or weed control at 10 ppm / pest or weed control at 50 ppm / pest or weed control at 100 ppm: 168 h, read-out: BPM control value (C.V.)
Rhizoctonia solani AG-1 = assay: Fungicidal activity against rice sheath blight (RSB) disease, control value; details: for pest or weed control at 2 ppm / pest or weed control at 10 ppm / pest or weed control at 50 ppm / pest or weed control at 100 ppm: Rhizoctonia solani, AG1, in Oryza sativa, read-out: RSB control value (C.V.); for RSB control value (C.V.): rice sheath blight
Phytophthora infestans = assay: whole plant or invertebrate; format: in vivo; details: for pest or weed control at 2 ppm / pest or weed control at 10 ppm / pest or weed control at 50 ppm / pest or weed control at 100 ppm: Phytophthora infestans, in Solanum lycopersicum, read-out: TLB control value (C.V.); for TLB control value (C.V.): tomato late blight
[2] = Botrytis, read-out: CGM control value (C.V.)
[3] = Botrytis, cucumber gray mold rot, read-out: CGM control value (C.V.)
[4] = Hordeum vulgare, 2 ppm, barley powdery mildew
[5] = Hordeum vulgare, 10 ppm, barley powdery mildew
[6] = Hordeum vulgare, 50 ppm, barley powdery mildew
[7] = Hordeum vulgare, 100 ppm, barley powdery mildew

## CO/N=C(/C(=O)OC)c1ccccc1COc1ccc(C=C(Br)Br)cc1Cl [Example 63, methyl-(E)-2-(2-((4-(2,2-dibromovinyl)-2-chlorophenoxy)methyl)phenyl)-2-methoxyiminoacetate]
Puccinia recondita; Puccinia recondita, 2 ppm
  pest or weed control at 2 ppm: 100%
Puccinia recondita; Puccinia recondita, 10 ppm
  pest or weed control at 10 ppm: 100%
Puccinia recondita; Puccinia recondita, 50 ppm
  pest or weed control at 50 ppm: 100%
Puccinia recondita; Puccinia recondita, 100 ppm
  pest or weed control at 100 ppm: 100%
[1]
  pest or weed control at 2 ppm: 100%
  pest or weed control at 10 ppm: 100%
  pest or weed control at 50 ppm: 100%
  pest or weed control at 100 ppm: 100%
Botrytis cinerae; Botrytis, 50 ppm, read-out: CGM control value (C.V.)
  pest or weed control at 50 ppm: 20%
Botrytis cinerae; [2]
  pest or weed control at 100 ppm: 75%
Erysiphae graminis; 2 ppm
  pest or weed control at 2 ppm: 100%
Erysiphae graminis; 10 ppm
  pest or weed control at 10 ppm: 100%
Erysiphae graminis; 50 ppm
  pest or weed control at 50 ppm: 100%
Erysiphae graminis; 100 ppm
  pest or weed control at 100 ppm: 100%
Rhizoctonia solani AG-1
  pest or weed control at 2 ppm: 90%
  pest or weed control at 10 ppm: 100%
  pest or weed control at 50 ppm: 100%
  pest or weed control at 100 ppm: 100%
Phytophthora infestans
  pest or weed control at 2 ppm: 99%
  pest or weed control at 10 ppm: 100%
  pest or weed control at 50 ppm: 100%
  pest or weed control at 100 ppm: 100%

## CNC(=O)/C(=N/OC)c1ccccc1COc1cc(C=C(Br)Br)ccc1OC [Example 72, (E)-2-(2-((5-(2,2-dibromovinyl)-2-methoxyphenoxy)methyl)phenyl)-2-methoxyimino-N-methylacetamide]
Puccinia recondita; Puccinia recondita, 2 ppm
  pest or weed control at 2 ppm: 97%
Puccinia recondita; Puccinia recondita, 10 ppm
  pest or weed control at 10 ppm: 100%
Puccinia recondita; Puccinia recondita, 50 ppm
  pest or weed control at 50 ppm: 100%
Puccinia recondita; Puccinia recondita, 100 ppm
  pest or weed control at 100 ppm: 100%
[1]
  pest or weed control at 2 ppm: 80%
  pest or weed control at 10 ppm: 99%
  pest or weed control at 50 ppm: 100%
  pest or weed control at 100 ppm: 100%
Botrytis cinerae; [2]
  pest or weed control at 100 ppm: 79%
Erysiphae graminis; 2 ppm
  pest or weed control at 2 ppm: 98%
Erysiphae graminis; 10 ppm
  pest or weed control at 10 ppm: 100%
Erysiphae graminis; 50 ppm
  pest or weed control at 50 ppm: 100%
Erysiphae graminis; 100 ppm
  pest or weed control at 100 ppm: 100%
Rhizoctonia solani AG-1
  pest or weed control at 2 ppm: 75%
  pest or weed control at 10 ppm: 98%
  pest or weed control at 50 ppm: 100%
  pest or weed control at 100 ppm: 100%
Phytophthora infestans
  pest or weed control at 2 ppm: 70%
  pest or weed control at 10 ppm: 90%
  pest or weed control at 50 ppm: 100%
  pest or weed control at 100 ppm: 100%

## CNC(=O)/C(=N/OC)c1ccccc1CON=C(C)c1ccc(C=C(F)Cl)cc1 [Example 34, (E)-2-[[[[[2-[4-(2-chloro-2-fluorovinyl)phenyl](1-methyl)methylidene]amino]oxy]methyl]phenyl]-2-methoxyimino-N-methylacetamide]
Puccinia recondita; 100 ppm, wheat leaf rust
  WLR control value (C.V.): 72%
[1]; 50 ppm
  RCB control value (C.V.): 90%
[1]; 100 ppm
  RCB control value (C.V.): 95%
Botrytis cinerae; cucumber gray mold rot
  CGM control value (C.V.): 40%
Erysiphae graminis; 100 ppm, barley powdery mildew
  BPM control value (C.V.): 60%
Rhizoctonia solani AG-1; 100 ppm
  RSB control value (C.V.): 15%
Phytophthora infestans; 50 ppm
  TLB control value (C.V.): 35%
Phytophthora infestans; 100 ppm
  TLB control value (C.V.): 98%

## CNC(=O)/C(=N/OC)c1ccccc1CON=C(C)c1ccc(C=C(Cl)Cl)cc1 [Example 22, (E)-2-[[[[[2-[4-(2,2-dichlorovinyl)phenyl](1-methyl)methylidene]amino]oxy]methyl]phenyl]-2-methoxyimino-N-methylacetamide]
Puccinia recondita; 2 ppm, wheat leaf rust
  WLR control value (C.V.): 100%
Puccinia recondita; 10 ppm, wheat leaf rust
  WLR control value (C.V.): 100%
Puccinia recondita; 50 ppm, wheat leaf rust
  WLR control value (C.V.): 100%
Puccinia recondita; 100 ppm, wheat leaf rust
  WLR control value (C.V.): 100%
[1]; 2 ppm
  RCB control value (C.V.): 100%
[1]; 10 ppm
  RCB control value (C.V.): 100%
[1]; 50 ppm
  RCB control value (C.V.): 100%
[1]; 100 ppm
  RCB control value (C.V.): 100%
Botrytis cinerae; cucumber gray mold rot
  CGM control value (C.V.): 45%
Erysiphae graminis; 2 ppm, barley powdery mildew
  BPM control value (C.V.): 98%
Erysiphae graminis; 10 ppm, barley powdery mildew
  BPM control value (C.V.): 100%
Erysiphae graminis; 50 ppm, barley powdery mildew
  BPM control value (C.V.): 100%
Erysiphae graminis; 100 ppm, barley powdery mildew
  BPM control value (C.V.): 100%
Rhizoctonia solani AG-1; 2 ppm
  RSB control value (C.V.): 90%
Rhizoctonia solani AG-1; 10 ppm
  RSB control value (C.V.): 98%
Rhizoctonia solani AG-1; 50 ppm
  RSB control value (C.V.): 100%
Rhizoctonia solani AG-1; 100 ppm
  RSB control value (C.V.): 100%
Phytophthora infestans; 2 ppm
  TLB control value (C.V.): 90%
Phytophthora infestans; 10 ppm
  TLB control value (C.V.): 100%
Phytophthora infestans; 50 ppm
  TLB control value (C.V.): 100%
Phytophthora infestans; 100 ppm
  TLB control value (C.V.): 100%

## CO/N=C(/C(=O)OC)c1ccccc1COc1cccc(C=C(Cl)Cl)c1Cl [Example 43, methyl-(E)-2-(2-((2-chloro-3-(2,2-dichlorovinyl)phenoxy)methyl)phenyl)-2-methoxyiminoacetate]
Puccinia recondita; 2 ppm, wheat leaf rust
  pest or weed control at 2 ppm: 100%
Puccinia recondita; 10 ppm, wheat leaf rust
  pest or weed control at 10 ppm: 100%
Puccinia recondita; 50 ppm, wheat leaf rust
  pest or weed control at 50 ppm: 100%
Puccinia recondita; 100 ppm, wheat leaf rust
  pest or weed control at 100 ppm: 100%
[1]
  pest or weed control at 2 ppm: 90%
  pest or weed control at 10 ppm: 99%
  pest or weed control at 50 ppm: 100%
  pest or weed control at 100 ppm: 100%
Botrytis cinerae; [3]
  pest or weed control at 100 ppm: 0%
Erysiphae graminis; [4]
  pest or weed control at 2 ppm: 100%
Erysiphae graminis; [5]
  pest or weed control at 10 ppm: 100%
Erysiphae graminis; [6]
  pest or weed control at 50 ppm: 100%
Erysiphae graminis; [7]
  pest or weed control at 100 ppm: 100%
Rhizoctonia solani AG-1
  pest or weed control at 2 ppm: 90%
  pest or weed control at 10 ppm: 100%
  pest or weed control at 50 ppm: 100%
  pest or weed control at 100 ppm: 100%
Phytophthora infestans
  pest or weed control at 2 ppm: 100%
  pest or weed control at 10 ppm: 100%
  pest or weed control at 50 ppm: 100%
  pest or weed control at 100 ppm: 100%

## CO/N=C(/C(=O)OC)c1ccccc1COc1ccc(C=C(Cl)Cl)cc1Cl [Example 39, methyl-(E)-2-(2-((2-chloro-4-(2,2-dichlorovinyl)phenoxy)methyl)phenyl)-2-methoxyiminoacetate]
Puccinia recondita; 2 ppm, wheat leaf rust
  pest or weed control at 2 ppm: 100%
Puccinia recondita; 10 ppm, wheat leaf rust
  pest or weed control at 10 ppm: 100%
Puccinia recondita; 50 ppm, wheat leaf rust
  pest or weed control at 50 ppm: 100%
Puccinia recondita; 100 ppm, wheat leaf rust
  pest or weed control at 100 ppm: 100%
[1]
  pest or weed control at 2 ppm: 100%
  pest or weed control at 10 ppm: 100%
  pest or weed control at 50 ppm: 100%
  pest or weed control at 100 ppm: 100%
Botrytis cinerae; [3]
  pest or weed control at 100 ppm: 75%
Erysiphae graminis; [4]
  pest or weed control at 2 ppm: 100%
Erysiphae graminis; [5]
  pest or weed control at 10 ppm: 100%
Erysiphae graminis; [6]
  pest or weed control at 50 ppm: 100%
Erysiphae graminis; [7]
  pest or weed control at 100 ppm: 100%
Rhizoctonia solani AG-1
  pest or weed control at 2 ppm: 100%
  pest or weed control at 10 ppm: 100%
  pest or weed control at 50 ppm: 100%
  pest or weed control at 100 ppm: 100%
Phytophthora infestans
  pest or weed control at 2 ppm: 100%
  pest or weed control at 10 ppm: 100%
  pest or weed control at 50 ppm: 100%
  pest or weed control at 100 ppm: 100%

## CO/N=C(/C(=O)OC)c1ccccc1COc1cc(C=C(Cl)Cl)ccc1OC [Example 47, methyl-(E)-2-(2-((5-(2,2-dichlorovinyl)-2-methoxyphenoxy)methyl)phenyl)-2-methoxyiminoacetate]
Puccinia recondita; 2 ppm, wheat leaf rust
  pest or weed control at 2 ppm: 100%
Puccinia recondita; 10 ppm, wheat leaf rust
  pest or weed control at 10 ppm: 100%
Puccinia recondita; 50 ppm, wheat leaf rust
  pest or weed control at 50 ppm: 100%
Puccinia recondita; 100 ppm, wheat leaf rust
  pest or weed control at 100 ppm: 100%
[1]
  pest or weed control at 2 ppm: 80%
  pest or weed control at 10 ppm: 99%
  pest or weed control at 50 ppm: 100%
  pest or weed control at 100 ppm: 100%
Botrytis cinerae; [3]
  pest or weed control at 100 ppm: 55%
Erysiphae graminis; [4]
  pest or weed control at 2 ppm: 100%
Erysiphae graminis; [5]
  pest or weed control at 10 ppm: 100%
Erysiphae graminis; [6]
  pest or weed control at 50 ppm: 100%
Erysiphae graminis; [7]
  pest or weed control at 100 ppm: 100%
Rhizoctonia solani AG-1
  pest or weed control at 2 ppm: 95%
  pest or weed control at 10 ppm: 100%
  pest or weed control at 50 ppm: 100%
  pest or weed control at 100 ppm: 100%
Phytophthora infestans
  pest or weed control at 2 ppm: 85%
  pest or weed control at 10 ppm: 95%
  pest or weed control at 50 ppm: 100%
  pest or weed control at 100 ppm: 100%

## CNC(=O)/C(=N/OC)c1ccccc1COc1ccc(C=C(Cl)Br)cc1 [Example 18, (2E)-2-(2-((4-(2-bromo-2-chlorovinyl)phenoxy)methyl)phenyl)-2-methoxyimino-N-methylacetamide]
Puccinia recondita; 2 ppm, wheat leaf rust
  pest or weed control at 2 ppm: 100%
Puccinia recondita; 10 ppm, wheat leaf rust
  pest or weed control at 10 ppm: 100%
Puccinia recondita; 50 ppm, wheat leaf rust
  pest or weed control at 50 ppm: 100%
Puccinia recondita; 100 ppm, wheat leaf rust
  pest or weed control at 100 ppm: 100%
[1]
  pest or weed control at 2 ppm: 100%
  pest or weed control at 10 ppm: 100%
  pest or weed control at 50 ppm: 100%
  pest or weed control at 100 ppm: 100%
Botrytis cinerae; [3]
  pest or weed control at 100 ppm: 45%
Erysiphae graminis; [4]
  pest or weed control at 2 ppm: 95%
Erysiphae graminis; [5]
  pest or weed control at 10 ppm: 98%
Erysiphae graminis; [6]
  pest or weed control at 50 ppm: 100%
Erysiphae graminis; [7]
  pest or weed control at 100 ppm: 100%
Rhizoctonia solani AG-1
  pest or weed control at 2 ppm: 90%
  pest or weed control at 10 ppm: 98%
  pest or weed control at 50 ppm: 100%
  pest or weed control at 100 ppm: 100%
Phytophthora infestans
  pest or weed control at 2 ppm: 30%
  pest or weed control at 10 ppm: 80%
  pest or weed control at 50 ppm: 100%
  pest or weed control at 100 ppm: 100%
